Test results reported in patent publication US20210386367A1, “DEVICES AND SYSTEMS FOR GASTROINTESTINAL MICROBIOME DETECTION AND MANIPULATION” (Progenity, Inc., priority 2018, published 2021).
Values after ≈ are worked out from the molar mass of the structure shown. Like-named read-outs stand apart in the source and are kept apart here.

Legend:
[1] = test system: Escherichia coli; assay: Broth microdilution MIC, 50 clinical isolates (incl. ESBL, one NDM-1); type: cell-based
Protocol: Minimal inhibitory concentration (MIC) values were determined by broth microdilution or agar dilution in accordance with guidelines from the Clinical and Laboratory Standards Institute (CLSI; (1) “Methods for Dilution Antimicrobial Susceptibility Tests for Bacteria That Grow Aerobically; Approved Standard; 11th ed.” CLSI standard M07-A11, 2018; (2) “Performance Standards for Antimicrobial Susceptibility Testing; Twenty-Eighth Informational Supplement,” CLSI document M100-S28, 2018; and (3) “Methods for Antimicrobial Susceptibility Testing of Anaerobic Bacteria; Approved Standard—Eighth Edition,” CLSI document M11-A8, 2012).
Tested aerobically by broth microdilution: • Escherichia coli, n=50 • Klebsiella spp., n=50 • Pseudomonas aeruginosa, n=50 • Streptococcus spp., n=50 • Staphylococcus aureus, n=50 • Enterococcus faecalis, n=50 • Enterobacter aerogenes, n=50 • Proteus mirabilis, n=50
Broth microdilution testing of aerobic bacteria was conducted in cation-adjusted Mueller Hinton broth (MHBII). For testing streptococci, lysed horse blood (LHB) was added to MHBII broth at a final concentration of 3%. Where LHB was used, it was added after filtering.
Broth microdilution susceptibility testing in 96-well microplates was conducted in accordance with CLSI methods (1) and (2). Automated liquid handlers were used to conduct serial dilutions and liquid transfers, including the Multidrop 384 (Labsystems, Helsinki, Finland), Biomek 2000, and the Biomek FX (Beckman Coulter, Fullerton, Calif.). All wells in columns 2 through 12 of a standard 96-well microdilution plate (Costar 3795) were filled with 150 μL of the appropriate diluent. Then, 300 μL of the test agents were added to the wells of column 1 of the plates at 100× the highest final concentration to be tested. Serial two-fold dilutions were made across the rows through column 11 using the Biomek 2000. The wells of column 12 contained no drug and served as the growth control wells. This plate served as the “mother plate” from which MIC assay plates or “daughter plates” were made.
The daughter plates were loaded with 190 μL per well of the appropriate medium using the Multidrop 384. The daughter plates were created using the Biomek FX which transferred 2 μL of drug solution from each well of a mother plate to each corresponding well of the daughter plate in a single step. A standardized inoculum of each test organism was prepared per CLSI methods (1) to equal a 0.5 McFarland standard, followed by a dilution of 1:20 for aerobes and 1:10 for anaerobes. The plates were then inoculated with 10 μL of the diluted inoculum using the Biomek 2000 from low to high drug concentration, resulting in a final concentration of approximately 5×10^5 CFU/mL per well. An un-inoculated plate was incubated in parallel for each medium for the purpose of assessing solubility of the drug in the test media.
Inoculated plates were stacked 3 or 4 high, covered with a sterile lid on the top plate, placed into boxes with CO2 planchets (streptococci) or plastic bags (all other isolates). Plates were incubated at 35° C. for 16-24 hr in ambient air for aerobes or for 42-48 hr in the anaerobic environment of the Bactron II anaerobe chamber (Sheldon Manufacturing Co.; Cornelius, Oreg.). Following incubation, the microplates were removed from the incubator and viewed from the bottom using a plate viewer. The MIC values were read and recorded as the lowest concentration of drug that inhibited visible growth of the organism as per CLSI methods (1) and (2).

[2] = test system: E. coli (ATCC 25922, ATCC 35218, MMX 1312); assay: Spontaneous mutation frequency assay; type: cell-based, Escherichia coli; conditions: for Spontaneous Mutation Frequency: selection at 4× and 8× MIC, meropenem/ceftriaxone: isolates other than MMX 1312
Protocol: Initial values of the MIC were determined by agar dilution in accordance with guidelines from the Clinical and Laboratory Standards Institute (CLSI; (1) “Methods for Dilution Antimicrobial Susceptibility Tests for Bacteria That Grow Aerobically; Approved Standard; 11th ed.,” CLSI standard M07, 2018; (2) “Methods for Antimicrobial Susceptibility Testing of Anaerobic Bacteria; Approved Standard—Eighth Edition,” CLSI document M11-A8, 2012.).
The agar plates were prepared by mixing a ratio of 1.0 mL of concentrated drug to 49.0 mL of the appropriate molten (47° C.) agar; the drug-supplemented agar was mixed, poured into 15-by-150 mm petri dishes and allowed to solidify and dry at room temperature prior to inoculation. […] Each plate was allowed to cool at room temperature for at least 1 hr.
The isolates were streaked onto the appropriate agar medium and incubated for 20 hr (aerobes) or 48 hr (Bacteroides under anaerobic conditions). Using a sterile swab, several well-isolated colonies were removed and resuspended in sterile saline at a heavy cell density. Each plate was inoculated with 0.5 mL of the cell suspension (each test concentration was inoculated in duplicate). The target inoculum for each spontaneous mutation plate was 10^9-10 CFU. In addition, a portion of the inoculum from each isolate was enumerated by making dilutions, spreading on agar and counting colonies.
Once the inoculum was absorbed into the agar, the plates were incubated at 35° C. Aerobes were examined at 24 and 48 hr, and resulting colonies were counted. Bacteroides were incubated anaerobically for 48-72 hr in the anaerobe chamber and colonies were counted.
Colony counts from plates used to enumerate the initial inoculum density and from the resulting spontaneous mutation frequency test plates were determined. The inoculum size was calculated as CFU inoculated per plate. The spontaneous mutation frequency was calculated using the counts from duplicate spontaneous mutation assay test plates as follows:
If there were no colonies on the antibiotic selection plates, the spontaneous mutation frequency was reported as less than the frequency observed with one colony to indicate that the spontaneous mutation frequency was less than the limit of detection (one CFU). […] The mutation prevention concentration (MPC) was reported as the lowest concentration for which no mutants were selected.

[3] = test system: S. pyogenes ATCC 49399; assay: Time-kill assay; type: cell-based, Streptococcus pyogenes; conditions: 2×, 4×, 8× MIC; 2, 6, 24 hr

In the case of `CO/N=C(\C(=O)N[C@@H]1C(=O)N2C(C(=O)O)=C(CSc3nc(=O)c(=O)[nH]n3C)CS[C@H]12)c1csc(N)n1` [ceftriaxone], the “% R” value [1] is reported as “Thirty-six”, the “% S” value [1] is reported as 64% and the Mode [1] is reported as 0.03 µg/mL. The “Cumulative percentage of isolates inhibited at MIC” value ([1]; 0.008 μg/mL) was 2.0%, the “Number of test isolates at MIC” value ([1]; 0.008 μg/mL) was 1 and the “Cumulative percentage of isolates inhibited at MIC” value ([1]; 0.015 μg/mL) was 1.0%. The “Number of test isolates at MIC” value ([1]; 0.015 μg/mL) was 1, the “Cumulative percentage of isolates inhibited at MIC” value ([1]; 0.03 μg/mL) was 42.0% and the “Number of test isolates at MIC” value ([1]; 0.03 μg/mL) was 19. The “Cumulative percentage of isolates inhibited at MIC” value ([1]; 0.06 μg/mL) was 58.0%, the “Number of test isolates at MIC” value ([1]; 0.06 μg/mL) was 8 and the “Cumulative percentage of isolates inhibited at MIC” value ([1]; 8 μg/mL) was 68.0%. The “Number of test isolates at MIC” value ([1]; 8 μg/mL) was 2, the “Cumulative percentage of isolates inhibited at MIC” value ([1]; 16 μg/mL) was 72.0% and the “Number of test isolates at MIC” value ([1]; 16 μg/mL) was 2. The “Cumulative percentage of isolates inhibited at MIC” value ([1]; 64 μg/mL) was 76.0%, the “Number of test isolates at MIC” value ([1]; 64 μg/mL) was 2 and the “Cumulative percentage of isolates inhibited at MIC” value ([1]; >128 μg/mL) was 100.0%. The “Number of test isolates at MIC” value ([1]; >128 μg/mL) was 12, the MIC90 ([1]; Escherichia coli) was > 128 µg/mL and the MIC50 ([1]; Escherichia coli, read-out: MIC50) was 0.06 µg/mL (≈ 0.108 µM). The “Cumulative percentage of isolates inhibited at MIC” value ([1]; […]) was 64.0%, the “Number of test isolates at MIC” value ([1]; […]) was 3 and the “% R” value ([1]; listed as CTR) was 36%. The MIC90 ([1]; listed as CTR) was >128 µg/mL, the mutation rate ([2]; E. coli MMX 1312) was “indeterminate” and the Spontaneous Mutation Frequency [2] was ≤ 7.41×10^−9. For the same compound, the “time-kill kinetics outcome (bactericidal = ≥3 log reduction in CFU per mL)” value [3] was “bactericidal effect at 4× and 8×MIC at 24 hr”.

Compound `CO[C@H]1/C=C/O[C@@]2(C)Oc3c(C)c(O)c4c(O)c(c5c(nc6cc(C)ccn65)c4c3C2=O)NC(=O)/C(C)=C\C=C\[C@H](C)[C@H](O)[C@@H](C)[C@@H](O)[C@@H](C)[C@H](OC(C)=O)[C@@H]1C` [rifaximin] has an MIC50 [1] of 8 µg/mL (≈ 10.2 µM), an MIC90 [1] of 16 µg/mL (≈ 20.4 µM) and an MIC range [1] of 1 to 32 µg/mL. For the same compound, the Mode [1] was 8 µg/mL, the “Cumulative percentage of isolates inhibited at MIC” value ([1]; 1 μg/mL) was 2.0% and the “Number of test isolates at MIC” value ([1]; 1 μg/mL) was 1. The “Cumulative percentage of isolates inhibited at MIC” value ([1]; 2 μg/mL) was 6.0%, the “Number of test isolates at MIC” value ([1]; 2 μg/mL) was 2 and the “Cumulative percentage of isolates inhibited at MIC” value ([1]; 4 μg/mL) was 34.0%. The “Number of test isolates at MIC” value ([1]; 4 μg/mL) was 14, the “Cumulative percentage of isolates inhibited at MIC” value ([1]; 8 μg/mL) was 80.0% and the “Number of test isolates at MIC” value ([1]; 8 μg/mL) was 23. The “Cumulative percentage of isolates inhibited at MIC” value ([1]; 16 μg/mL) was 98.0%, the “Number of test isolates at MIC” value ([1]; 16 μg/mL) was 9 and the “Cumulative percentage of isolates inhibited at MIC” value ([1]; 32 μg/mL) was 100.0%. For the same compound, the “Number of test isolates at MIC” value ([1]; 32 μg/mL) was 1, the Spontaneous Mutation Frequency [2] was > 2.37×10^−8 and the Spontaneous Mutation Frequency ([2]; listed as rifampin) was ~10^−8. The “time-kill kinetics outcome (bactericidal = ≥3 log reduction in CFU per mL)” value [3] was “bacteriostatic effect against this organism at 2×, 4×, and 8× the MIC”.
